Tests used:
[1] = Inhibition of recombinant GMPPNP-loaded KRAS G12D mutant/recombinant GST-tagged RAF1 RBD (unknown origin) interaction preincubated for 20 mins followed by RAF1 RBD addition and measured after 3 hrs by HTRF assay; design: species or system Homo sapiens
[2] = Inhibition of recombinant GDP-loaded KRAS G12D mutant/recombinant SOS (unknown origin) interaction preincubated for 20 mins followed by SOS addition and measured after 30 mins by HTRF assay; design: species or system Homo sapiens

Compound | IC50 [1] [nM] | IC50 [2] [nM]
C#Cc1c(F)ccc2cc(O)cc(-c3ncc4c(N5CCCC(O)(C(F)(F)F)C5)nc(OC[C@]56CCC[C@H]5N(C)CCC6)nc4c3F)c12 (some centres not stated) | 3 | 2
C#Cc1c(F)ccc2cc(O)cc(-c3ncc4c(N5CCCOCC5)nc(OC[C@]56CCC[C@H]5N(CC)CCC6)nc4c3F)c12 | 6 | 2
C#Cc1c(F)ccc2cc(O)cc(-c3ccc4c(N5C[C@@H]6C[C@H]5C(=O)N6)nc(OC[C@]56CCC[C@H]5N(C)CCC6)nc4c3F)c12 | 3 | 6

The next lines start with the values.

IC50 [1] [nM] | IC50 [2] [nM] | Compound
2 | 2 | C#Cc1c(F)ccc2cc(O)cc(-c3ncc4c(N5CCOCC(CC#N)C5)nc(OC[C@]56CCC[C@H]5N(C)CCC6)nc4c3F)c12 (some centres not stated)
2 | 2 | C#Cc1c(F)ccc2cc(O)cc(-c3ncc4c(N5CCCC(C#N)C5)nc(OC[C@@]56CCCN5C[C@H](F)C6)nc4c3F)c12 (some centres not stated)
3 | 5 | C#Cc1c(F)ccc2cc(O)cc(-c3ncc4c(N5CCOCC(CO)C5)nc(OC[C@]56CCC[C@H]5N(C)CCC6)nc4c3F)c12 (some centres not stated)
